The assay relates to immature embryos of NB1. Briefly: Asulam kill curve: production of embryogenic callus by immature embryos on Asulam-supplemented W3 medium. The format is cell-based, wheat. The note with it: scored after 6 weeks. As for the experimental part: The tissue culture protocol was essentially as the method of Weeks et al (Plant Physiol., 102:1077-1084 (1993)). Donor plants of the South American spring wheat line designated NB1, obtained from Nickerson Seeds Limited, were grown in a glasshouse under controlled conditions. Immature ears were harvested at 14-20 days post anthesis, and the immature caryopses were removed from the ear and dehusked using forceps. Caryopses were surface-sterilised with 70% ethanol for 2 minutes and 20% Domestos™ (Lever, UK) for 20-30 minutes and then washed with sterile distilled water. Immature embryos were isolated aseptically under a stereo dissecting microscope and placed scutella uppermost on W3 medium (MS supplemented with 20 g/l sucrose and 2 mg/l 2,4-D and solidified with 6 g/l Type I agarose [Sigma, Poole, UK]). Cultures were maintained at 25° C. with a 16 h photoperiod for 5 days prior to bombardment. Immature embryos were isolated as described for example 1, plated onto W3 medium and maintained in the dark. After 5-7 days embryos were transferred to W3 medium supplemented with Asulam (Rhone-Poulenc Agrochemicals, Ongar, UK) at a range of concentrations between 0 and 5 mg/l and maintained at 25° C. with a 16 h photo period. Embryos and embryo-derived embryogenic calli were transferred to fresh selective medium every 2 weeks. The calli were scored for embryogenic response after 6 weeks.

For `COC(=O)NS(=O)(=O)c1ccc(N)cc1` [Asulam], the “Embryogenic response (%)” value runs as follows: (Asulam 0.1 mg/l in W3 medium, (no. embryos with embryogenic callus/total no. embryos plated) × 100) 100%; (Asulam 0.25 mg/l in W3 medium) 64%; (Asulam 0.5 mg/l in W3 medium) 28%; (Asulam 1 mg/l in W3 medium) 0%; (Asulam 2 mg/l in W3 medium) 0%; (Asulam 3 mg/l in W3 medium) 0%. In addition, the “Embryogenic response (%)” value by setting is: (Asulam 4 mg/l in W3 medium) 0%; (Asulam 5 mg/l in W3 medium) 0%.
